Data as given in patent US20100075979A1, “PYRIDINYLPIPERAZIN DERIVATIVES USEFUL AS MODULATORS OF DOPAMINE D3 RECEPTORS” (priority 2008, published 2010).

Molecular target: T1, human D3 dopamine receptor (Homo sapiens, UniProt P35462)
T1 construct: expressed in transfected cells; host or cells: HEK-293 EBNA cells (transient transfection; membrane preparation)
Assay: Radioligand binding assay ([3H]-spiperone) on membranes of HEK-293 EBNA cells expressing human D3 receptor
Settings: [3H]-spiperone approx. 0.5 nM, 1 h at RT, cloned human D3 in HEK-293 EBNA membranes; Ki by Cheng-Prusoff
Protocol: The ability of the compounds to bind to the D3 receptors was determined using radioligand binding to cloned receptors selectively expressed in HEK-293 EBNA cells.
HEK-293 EBNA cells were transiently transfected with expression plasmids encoding for the human D3 dopamine receptor. The cells were harvested 48 h post-transfection, washed three times with cold PBS and stored at −80° C. prior to use. The pellet was suspended in cold 50 mM
Tris-HCl buffer containing 10 mM EDTA (pH 7.4) and homogenized with a Polytron (Kinematica AG, Basel, Switzerland) for 20-30 sec at 12.000 rpm. After centrifugation at 48.000×g for 30 min at 4° C., the pellet was resuspended in cold 10 mM Tris-HCl buffer containing 0.1 mM EDTA (pH 7.4), homogenized, and centrifuged as above. This pellet was further resuspended in a smaller volume of ice cold 10 mM Tris-HCl buffer containing 0.1 mM EDTA (pH 7.4) and homogenized with a Polytron for 20-30 sec at 12.000 rpm. The protein content of this homogenate was determined with the Bio-Rad (Bradford) Protein Assay (Biorad Laboratories GmbH, München, Germany) according to the instructions of the manufacturer using gamma globulin as the standard.
This homogenate was stored at −80° C. in aliquots and thawed immediately prior to use.
Aliquots of membrane preparations were thawed at RT, resuspended in assay buffer (50 mM Tris-HCl, 120 mM NaCl, 5 mM MgCl2, 1 mM EDTA, 5 mM KCl, 1.5 mM CaCl2, pH=7.4), homogenized with a Polytron for 20-30 sec at 12.000 rpm and adjusted to a final concentration of approximately 7.5 μg protein/well.
The binding affinity (Ki) of the compounds was determined using radioligand binding. Membranes were incubated in a total volume of 200 μl with a fixed concentration of radioligand (final concentration approximately 0.5 nM [^3H]-spiperone) and ten concentrations of test compound in ranging between 10 μM-0.1 nM for 1 h at RT. At the end of the incubation, the reaction mixtures were filtered on to unifilter 96-well white microplates with bonded GF/C filters (Packard BioScience, Zurich, Switzerland; preincubated for 1 h in 0.1% polyethylenimine (PEI) in assay buffer) with a Filtermate 196 harvester (Packard BioScience) and washed 3 times with cold assay buffer. The nonspecific binding was determined with equally composed reaction mixtures in the presence of 10 μM unlabelled spiperone. Per well 45 μl of Microscint 40 (Perkin Elmer, Schwerzenbach, Switzerland) was added, plates for sealed, shaken for 20 min and counted for 3 min on a Topcount Microplate Scintillation Counter (Canberra Packard SA, Zürich, Switzerland) with quenching correction.
The CPM value for each duplicate of a concentration of competing compound was averaged (y1), then the % specific binding was calculated according to the equation (((y1−non-specific)/(total binding-non-specific))×100). Graphs were plotted with the % specific binding using XLfit, a curve fitting program that iteratively plots the data using Levenburg Marquardt algorithm. The single site competition analysis equation used was y=A+((B−A)/(1+((x/C)^D))), where y is the % specific binding, A is the minimum y, B is the maximum y, C is the IC50, x is the log10 of the concentration of the competing compound and D is the slope of the curve (the Hill Coefficient). From these curves the IC50 (inhibition concentration at which 50% specific binding of the radioligand was displaced) and Hill coefficient were determined. The affinity constant (Ki) was calculated using the Cheng-Prusoff equation Ki=(IC50/1+([L]/Kd), where [L] is the concentration of radioligand and Kd is the dissociation constant of the radioligand at the receptor as determined by the saturation isotherm.

T1 sequence (P35462 whole entry): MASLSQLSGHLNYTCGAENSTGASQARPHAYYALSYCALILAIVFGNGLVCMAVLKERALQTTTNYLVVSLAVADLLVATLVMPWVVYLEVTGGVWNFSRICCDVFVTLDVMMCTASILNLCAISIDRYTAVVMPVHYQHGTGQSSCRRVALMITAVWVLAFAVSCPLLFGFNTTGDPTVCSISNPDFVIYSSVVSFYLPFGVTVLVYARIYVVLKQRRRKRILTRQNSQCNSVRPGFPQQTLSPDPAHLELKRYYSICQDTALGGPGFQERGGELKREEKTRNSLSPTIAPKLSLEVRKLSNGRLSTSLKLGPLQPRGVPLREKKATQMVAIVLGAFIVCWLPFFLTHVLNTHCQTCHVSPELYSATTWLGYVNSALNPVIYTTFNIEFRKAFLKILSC

Structure (SMILES)	Ki
CC(=O)N[C@H]1CC[C@H](CCN2CCN(c3ncc(C(F)(F)F)cc3Cl)CC2)CC1 [Example 1, N-(trans-4-{2-[4-(3-Chloro-5-trifluoromethyl-pyridin-2-yl)-piperazin-1-yl]-ethyl}-cyclohexyl)-acetamide]	9.64 nM
COCCC(=O)N[C@H]1CC[C@H](CCN2CCN(c3ncc(C(F)(F)F)cc3Cl)CC2)CC1 [Example 2, N-(trans-4-{2-[4-(3-Chloro-5-trifluoromethyl-pyridin-2-yl)-piperazin-1-yl]-ethyl}-cyclohexyl)-3-methoxy-propionamide]	5.66 nM
CCC(=O)N[C@H]1CC[C@H](CCN2CCN(c3ncc(C(F)(F)F)cc3Cl)CC2)CC1 [Example 3, N-(trans-4-{2-[4-(3-Chloro-5-trifluoromethyl-pyridin-2-yl)-piperazin-1-yl]-ethyl}-cyclohexyl)-propionamide]	16.8 nM
O=C(CC1CC1)N[C@H]1CC[C@H](CCN2CCN(c3ncc(C(F)(F)F)cc3Cl)CC2)CC1 [Example 4, N-(trans-4-{2-[4-(3-Chloro-5-trifluoromethyl-pyridin-2-yl)-piperazin-1-yl]-ethyl}-cyclohexyl)-2-cyclopropyl-acetamide]	10.1 nM
CC(=O)N[C@H]1CC[C@H](CCN2CCN(c3ncccc3Cl)CC2)CC1 [Example 5, N-(trans-4-{2-[4-(3-Chloro-pyridin-2-yl)-piperazin-1-yl]-ethyl}-cyclohexyl)-acetamide]	1.7 nM
CC(=O)N[C@H]1CC[C@H](CCN2CCN(c3ncc(Cl)cc3Cl)CC2)CC1 [Example 6, N-(trans-4-{2-[4-(3,5-Dichloro-pyridin-2-yl)-piperazin-1-yl]-ethyl}-cyclohexyl)-acetamide]	9.64 nM
CC(=O)N[C@H]1CC[C@H](CCN2CCN(c3ccc(C(F)(F)F)nc3)CC2)CC1 [Example 7, N-(trans-4-{2-[4-(6-Trifluoromethyl-pyridin-3-yl)-piperazin-1-yl]-ethyl}-cyclohexyl)-acetamide]	5.66 nM
NC(=O)CC(=O)N[C@H]1CC[C@H](CCN2CCN(c3ncc(C(F)(F)F)cc3Cl)CC2)CC1 [Example 8, N-(trans-4-{2-[4-(3-Chloro-5-trifluoromethyl-pyridin-2-yl)-piperazin-1-yl]-ethyl}-cyclohexyl)-malonamide]	16.8 nM
COc1cccnc1N1CCN(CC[C@H]2CC[C@H](NC(C)=O)CC2)CC1 [Example 9, N-(trans-4-{2-[4-(3-Methoxy-pyridin-2-yl)-piperazin-1-yl]-ethyl}-cyclohexyl)-acetamide]	10.1 nM
CC(=O)N[C@H]1CC[C@H](CCN2CCN(c3ccnc(Cl)c3Cl)CC2)CC1 [Example 10, N-(trans-4-{2-[4-(2,3-Dichloro-pyridin-4-yl)-piperazin-1-yl]-ethyl}-cyclohexyl)-acetamide]	1.7 nM
